US9540343B2 (Gilead Sciences, Inc., priority 2011, dated 2017)

Tests used:
HIV-IIIb = assay: Test A: Antiviral assay in MT4 cells; assay type: cell-based, HIV-1; conditions: percent inhibition of virus-induced cell killing, from dose response curve at 2 uM drug; MT-4 cells infected with HIV-IIIb, 5 days, CellTiter-Glo
MT-4 cells = assay: in vitro; conditions: uninfected MT-4 cells, same protocol as Test A, 5 days, CellTiter-Glo
How it was run: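 Cytoprotection read-out: CellTiter-Glo chemiluminescence after 5 days at 37 °C of HIV-IIIb-infected MT-4 cells (m.o.i. 0.003) with compound in 10-point 3-fold dilutions, quadruplicate, 10% FBS. Cytotoxicity (CC50) measured identically without virus.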

Row | Molecule | % inhibition at 2 μM (HIV-IIIb) | CC50 (MT-4 cells)
1 | CCC(C(=O)N[C@@H](Cc1cc(F)cc(F)c1)c1ncccc1-c1ccc(F)c(C(N)=O)c1)n1cc(C(C)=O)c2ccccc21 (stereo partly drawn) [Example 554, 5-(2-((1S)-1-(2-(3-acetyl-1H-indol-1-yl)butanamido)-2-(3,5-difluorophenyl)ethyl)pyridin-3-yl)-2-fluorobenzamide] | 63% | 48.9 µM
2 | (S)-5-(2-(1-(2-(5-(difluoromethyl)-3-phenyl-1H-pyrazol-1-yl)acetamido)-2-(3,5-difluorophenyl)ethyl)pyridin-3-yl)-2-fluorobenzamide [Example 240C] | 0% | 34.9 µM
3 | (S)—N-(1-(3-(4-(pyrrolidinylcarbonylamino)phenyl)-pyridin-2-yl)-2-(3,5-difluorophenyl)ethyl)-2-(3-(difluoromethyl)-5,6-dihydro-4,5-(methano)-6,6-difluoro-cyclopenta[c]pyrazol-1(4H)-yl)acetamide [Example 80] | 0% | > 53.2 µM
